pIC50: −log10 of the molar value.
test system: S. Typhi PhoP-promoter GFP reporter, fluorescence, 4 h; assay: modified counter assay using GFP fluorescence, PhoP regulon inhibitor project, dose response (AID 1985)

SMILES	pIC50
c1ccc2oc(-c3csc(NCC4CCCO4)n3)cc2c1 (centres undefined)	3.85
O=C(Cn1nc(CNc2ccc(Cl)cc2)[n+]2c1CCCCC2)c1ccc(Br)cc1	4.11
NC1=NC[C@H](Cc2ccccc2)N1CCCCC1CCCCC1	4.44
O=C(NNc1nc2ccc(F)cc2s1)c1cccc(F)c1	3.83
O=C(N/N=C/c1ccc([N+](=O)[O-])o1)C1CCCC1	4.42
COc1ccc(C(=O)NC(=S)NNC(=O)c2cnccn2)cc1OC	4.22
O=C(CNC(=O)c1cccc(F)c1)N/N=C/c1ccc([N+](=O)[O-])s1	4.62
COc1cc([N+](=O)[O-])cc(/C=N/NC(=O)C(O)(c2ccccc2)c2ccccc2)c1O	4.24
CCc1ccc(NC(=O)C[n+]2cc(-c3ccc(C)cc3)n3c2CCC3)cc1	4.16
NC1=NC[C@H](c2ccccc2)N1CCc1cc(C(F)(F)F)cc(C(F)(F)F)c1	4.25
CCCCCc1ccc(OCCCC[n+]2cccc(C)c2)c(CCCCC)c1	3.99
Cc1cc([N+](=O)[O-])cc(/C=N/n2c(C)nc3ccccc3c2=O)c1O	4.27
O=C(Cn1cnc2ccccc21)Nc1ccc(SC(F)F)cc1	4.11
C=CC1=C(C(=O)O)N2C(=O)[C@@H](NC(=O)/C(=N/OCC(=O)O)c3csc(N)n3)[C@H]2SC1	4.68
O=C(CSc1nc2ccccc2[nH]1)Nc1ccc(F)c(F)c1	4.33
c1ccc(-c2nc3ccccc3[nH]2)cc1	4.13
O=c1ccc2cc3c([nH]c4ccc(Br)cc43)oc-2c1O	4.65
NC1=NC2(CCCCC2)N=C(Nc2ccc(Br)cc2)N1	4.54
CNCCCC1Sc2ccccc2Oc2ccccc21 (centres undefined)	3.84
CC(C(=O)NC1CCS(=O)(=O)C1)N1C(=O)/C(=C/c2ccc(Cl)cc2)SC1=S (centres undefined)	4.74

SMILES	pIC50
C[C@H]1COc2c(C3(N)CC3)c(F)cc3c(=O)c(C(=O)O)cn1c23	> 6.64
O/N=C/c1ccc(OCc2ccccc2)c(Cl)c1	3.89
Cc1nc2c(=O)n(C)c(=O)nc-2n(C)n1	6.11
Clc1ccc(OCCCNCc2ccccc2)c2ccccc12	4.47
Cc1ccc(Nc2c3c(nc4ccccc24)CCC3)cc1	4.40
[O-][n+]1cccc2c(Br)cc(Br)c(O)c21	4.66
Cc1cc(OCC(O)CNC(C)c2ccccc2)ccc1C(C)C (centres undefined)	4.08
CCCCCCCCCCCCCCCC[n+]1ccc(/C=N/O)cc1	4.47
CC(C)(C)CC(C)(C)c1ccc(OCCOCC[N+](C)(C)Cc2ccccc2)cc1	4.46
COC(=O)N/N=C/c1c[n+]([O-])c2ccccc2[n+]1[O-]	4.00
O=C(Nc1ccc(-c2nc3ccccc3[nH]2)cc1)c1ccco1	4.06
CO/N=C(/C(=O)N[C@@H]1C(=O)N2C(C(=O)O)=CCS[C@H]12)c1cnc(N)s1	4.22
COc1ccccc1CNCCc1ccc(F)cc1	4.44
CCCNC1=C(C)C(=O)C2=C(C1=O)C(COC(N)=O)[C@]1(OC)C3NC3CN21 (some centres undefined)	4.29
COc1cc(CNCCO)cc(Cl)c1OCc1ccc(Cl)cc1Cl	4.41
Cc1ccc(NC(=O)c2ccc([N+](=O)[O-])o2)c(C)c1	4.41
OCCCCNCc1ccc(OCc2ccc(Cl)cc2Cl)cc1	3.88
O=C(N/N=C/c1ccc([N+](=O)[O-])s1)c1cccnc1	4.64
Fc1cccc(Nc2c3c(nc4ccccc24)CCC3)c1	3.90
O=c1c2ccccc2nc(N/N=C/c2c(O)ccc3ccccc23)n1O	4.64

SMILES	pIC50
CCCCCC[N+](C)(C)CC/C=C1/c2ccccc2Sc2ccc(Cl)cc21	4.44
O=C(Cn1cncn1)N/N=C/c1ccccc1O	3.99
Oc1ccc(CN2CCCc3ccccc32)c2cccnc12	4.44
CCCCOc1ccc(OCCNC(=O)c2ccco2)cc1	4.18
Cc1cc(C2N=C(N)Nc3nc4ccccc4n32)c(C)n1-c1ccccc1Cl (centres undefined)	4.05
Cc1ccc(NC(=O)CSC(N)=O)cc1Cl	4.48
O=c1[nH]c(=S)ccn1C1OC(CO)C(O)C1O (centres undefined)	5.76
COc1cccc(Nc2nc(NCC3CCCO3)c3ccccc3n2)c1 (centres undefined)	4.47
CCCCn1c(NS(=O)(=O)c2ccccc2)c(C(=O)OCC)c2nc3ccccc3nc21	3.96
Oc1ccc(C[C@H]2CNCCN2CCCCC2CCCCC2)cc1	4.09
Cc1cc([N+](=O)[O-])nn1CC(=O)N/N=C/c1ccccc1O	4.45
O=c1[nH]cc(N=Cc2cc([N+](=O)[O-])ccc2O)c(=O)[nH]1	4.40
CN1CCc2c(sc(NC(=O)c3ccc([N+](=O)[O-])o3)c2C(N)=O)C1	4.96
Clc1c(OCCCn2ccnc2)ccc2ccccc12	3.83
CCCCCC(=O)NNC(=S)NC(C)=O	4.64
Cc1nc(N)nc(N)c1CCCc1ccc(Cl)c(Cl)c1	4.37
COc1cccc(/C=N/NC(=O)CSCC(=O)Nc2ccccc2)c1O	4.03
O=C(Nc1csc(Cl)c1)c1ccccc1	4.36
COc1ccc(/C=C/c2cc(-c3ccc(C)cc3)o[n+]2C)cc1	4.00
